The results in this text go back to patent US6875777B2, “Compounds” (AstraZeneca AB, priority 1999, dated 2005).

Molecules are shown by their SMILES.

Series [1] in a line: MLM metabolic stability (% remaining). Particulars: for MLM 10000 % REM.: 10000 (unit not given); for MLM 100000 % REM.: 100000 (unit not given).
Series [2] is described as follows: RLM metabolic stability (% remaining). Particulars: for RLM 10000 % REM.: 10000 (unit not given); for RLM 100000 % REM.: 100000 (unit not given).

For `CCN(CC)C(=O)c1ccc(N(c2cccc(O)c2)C2CCN(Cc3ccccc3)CC2)cc1` [Example 1], in series [1], the “MLM 10000 % REM.” value was 10.4% and the “MLM 100000 % REM.” value came to 85.2%. In addition, in series [2], the “RLM 10000 % REM.” value is listed as 4.333% and the “RLM 100000 % REM.” value amounted to 66.125%.

Take `CCN(CC)C(=O)c1ccc(N(c2cc(O)ccc2F)C2CCN(Cc3ccccc3)CC2)cc1` [Example 6, N,N-diethyl-4-[(2-fluoro-5-hydroxyphenyl)[1-(phenylmethyl)-4-piperidinyl]amino]-benzamide]: in series [1], the “MLM 10000 % REM.” value worked out at 2% and the “MLM 100000 % REM.” value was determined as 69%. For the same molecule, in series [2], the “RLM 10000 % REM.” value is 5.333% and the “RLM 100000 % REM.” value was 81.333%.

On to `CCN(CC)C(=O)c1ccc(N(c2cccc(O)c2)C2CCN(Cc3ccoc3)CC2)cc1` [Example 15, N,N-diethyl-4-[[1-(3-furanylmethyl)-4-piperidinyl](3-hydroxyphenyl)amino]-benzamide], for which, in series [1], the “MLM 10000 % REM.” value is 3.5% and the “MLM 100000 % REM.” value worked out at 83.5%. Moreover, in series [2], the “RLM 10000 % REM.” value turned out to be 8% and the “RLM 100000 % REM.” value is recorded as 73%.

`CCN(CC)C(=O)c1ccc(N(c2cccc(O)c2)C2CCN(Cc3ccsc3)CC2)cc1` [Example 16, N,N-diethyl-4-[(3-hydroxyphenyl)[1-(3-thienylmethyl)-4-piperidinyl]amino]-benzamide]: in series [1], the “MLM 10000 % REM.” value was 5% and the “MLM 100000 % REM.” value is reported as 83%. Further, in series [2], the “RLM 10000 % REM.” value came to 1.5% and the “RLM 100000 % REM.” value is reported as 66.5%.

In the case of `CCN(CC)C(=O)c1ccc(N(c2cccc(O)c2)C2CCN(Cc3ccc(I)cc3)CC2)cc1` [Example 19, N,N-diethyl-4-[(3-hydroxyphenyl)[1-[(4-iodophenyl)methyl]-4-piperidinyl]amino]-benzamide], in series [1], the “MLM 10000 % REM.” value was found to be 30.667% and the “MLM 100000 % REM.” value was 61.667%. Moreover, in series [2], the “RLM 10000 % REM.” value is 0% and the “RLM 100000 % REM.” value came out at 35.667%.

In the case of `CCN(CC)C(=O)c1ccc(N(c2cccc(O)c2)C2CCN(Cc3ccc(Br)cc3)CC2)cc1` [Example 20, N,N-diethyl-4-[[1-[(4-bromophenyl)methyl]-4-piperidinyl](3-hydroxyphenyl)amino]-benzamide], in series [1], the “MLM 10000 % REM.” value is listed as 30.5% and the “MLM 100000 % REM.” value was determined as 81.5%. For the same molecule, in series [2], the “RLM 10000 % REM.” value is given as 4.5% and the “RLM 100000 % REM.” value was 51.5%.

With `CCN(CC)C(=O)c1ccc(N(c2cccc(O)c2)C2CCN(Cc3ccc(Cl)cc3)CC2)cc1` [Example 21, N,N-diethyl-4-[[1-[(4-chlorophenyl)methyl]-4-piperidinyl](3-hydroxyphenyl)amino]-benzamide], in series [1], the “MLM 10000 % REM.” value worked out at 16.333% and the “MLM 100000 % REM.” value is on record as 85%. Also, in series [2], the “RLM 10000 % REM.” value came to 2.333% and the “RLM 100000 % REM.” value was found to be 45%.

On to `CCN(CC)C(=O)c1ccc(N(c2cccc(O)c2)C2CCN(Cc3ccc(F)cc3)CC2)cc1` [Example 22, N,N-diethyl-4-[[1-[(4-fluorophenyl)methyl]-4-piperidinyl](3-hydroxyphenyl)amino]-benzamide], for which, in series [1], the “MLM 10000 % REM.” value came to 8.5% and the “MLM 100000 % REM.” value was found to be 85%. Besides, in series [2], the “RLM 10000 % REM.” value is 17% and the “RLM 100000 % REM.” value is 63%.

As to `CCN(CC)C(=O)c1ccc(N(c2cccc(O)c2)C2CCN(Cc3ccc(Cl)cc3Cl)CC2)cc1` [Example 23, 4-[[1-[(2,4-dichlorophenyl)methyl]-4-piperidinyl](3-hydroxyphenyl)amino]-N,N-diethyl-benzamide], in series [1], the “MLM 10000 % REM.” value was determined as 30.5% and the “MLM 100000 % REM.” value was determined as 93%. Also, in series [2], the “RLM 10000 % REM.” value is recorded as 20.5% and the “RLM 100000 % REM.” value is given as 75%.

In the case of `CCN(CC)C(=O)c1ccc(N(c2cccc(O)c2)C2CCN(Cc3cccc(F)c3)CC2)cc1` [Example 24, N,N-diethyl-4-[[1-[(3-fluorophenyl)methyl]-4-piperidinyl](3-hydroxyphenyl)amino]-benzamide], in series [1], the “MLM 10000 % REM.” value was determined as 3.5% and the “MLM 100000 % REM.” value is 71.5%. For the same molecule, in series [2], the “RLM 10000 % REM.” value was 3.5% and the “RLM 100000 % REM.” value is given as 87.5%.

For `CCN(CC)C(=O)c1ccc(N(c2cccc(O)c2)C2CCN(Cc3ccccc3F)CC2)cc1` [Example 25, N,N-diethyl-4-[[1-[(2-fluorophenyl)methyl]-4-piperidinyl](3-hydroxyphenyl)amino]-benzamide], in series [1], the “MLM 10000 % REM.” value was found to be 0% and the “MLM 100000 % REM.” value worked out at 71%. In addition, in series [2], the “RLM 10000 % REM.” value worked out at 4% and the “RLM 100000 % REM.” value came out at 71%.

Take `CCN(CC)C(=O)c1ccc(N(c2cccc(O)c2)C2CCN(Cc3ccc(C)cc3)CC2)cc1` [Example 26, N,N-diethyl-4-[(3-hydroxyphenyl)[1-[(4-methylphenyl)methyl]-4-piperidinyl]amino]-benzamide]: in series [1], the “MLM 10000 % REM.” value amounted to 31.5% and the “MLM 100000 % REM.” value is 86%. Further, in series [2], the “RLM 10000 % REM.” value was 3.5% and the “RLM 100000 % REM.” value is reported as 63.5%.

`CCN(CC)C(=O)c1ccc(N(c2cccc(O)c2)C2CCN(Cc3ccco3)CC2)cc1` [Example 27, N,N-diethyl-4-[[1-(2-furanylmethyl)-4-piperidinyl](3-hydroxyphenyl)amino]-benzamide]: in series [1], the “MLM 10000 % REM.” value is recorded as 2% and the “MLM 100000 % REM.” value is on record as 65%. Moreover, in series [2], the “RLM 10000 % REM.” value was 3.5% and the “RLM 100000 % REM.” value came to 54.5%.

Regarding `CCN(CC)C(=O)c1ccc(N(c2cccc(O)c2)C2CCN(Cc3cccs3)CC2)cc1` [Example 28, N,N-diethyl-4-[(3-hydroxyphenyl)[1-(2-thienylmethyl)-4-piperidinyl]amino]-benzamide], in series [1], the “MLM 10000 % REM.” value amounted to 1.5% and the “MLM 100000 % REM.” value is recorded as 80%. In series [2], the “RLM 10000 % REM.” value was 1.5% and the “RLM 100000 % REM.” value is 52%.

Regarding `CCN(CC)C(=O)c1ccc(N(c2cccc(O)c2)C2CCN(Cc3ncc[nH]3)CC2)cc1` [Example 29, N,N-diethyl-4-{3-hydroxy[1-(1H-imidazol-2-ylmethyl)-4-piperidinyl]anilino}benzamide], in series [1], the “MLM 10000 % REM.” value came to 6% and the “MLM 100000 % REM.” value was found to be 92.5%. In addition, in series [2], the “RLM 10000 % REM.” value worked out at 36.5% and the “RLM 100000 % REM.” value is given as 74.5%.

As for `CCN(CC)C(=O)c1ccc(N(c2cccc(O)c2)C2CCN(Cc3ccccn3)CC2)cc1` [Example 30, N,N-diethyl-4-{3-hydroxy[1-(2-pyridinylmethyl)-4-piperidinyl]anilino}benzamide], in series [1], the “MLM 10000 % REM.” value is recorded as 26% and the “MLM 100000 % REM.” value was 82%. Also, in series [2], the “RLM 10000 % REM.” value was found to be 31% and the “RLM 100000 % REM.” value was 74%.
